Assay results taken from the Kinase Knowledgebase extract (Sharma et al. 2016).

biological target: EGFR (UniProt P00533)
Sequence (P00533 whole entry, looked up): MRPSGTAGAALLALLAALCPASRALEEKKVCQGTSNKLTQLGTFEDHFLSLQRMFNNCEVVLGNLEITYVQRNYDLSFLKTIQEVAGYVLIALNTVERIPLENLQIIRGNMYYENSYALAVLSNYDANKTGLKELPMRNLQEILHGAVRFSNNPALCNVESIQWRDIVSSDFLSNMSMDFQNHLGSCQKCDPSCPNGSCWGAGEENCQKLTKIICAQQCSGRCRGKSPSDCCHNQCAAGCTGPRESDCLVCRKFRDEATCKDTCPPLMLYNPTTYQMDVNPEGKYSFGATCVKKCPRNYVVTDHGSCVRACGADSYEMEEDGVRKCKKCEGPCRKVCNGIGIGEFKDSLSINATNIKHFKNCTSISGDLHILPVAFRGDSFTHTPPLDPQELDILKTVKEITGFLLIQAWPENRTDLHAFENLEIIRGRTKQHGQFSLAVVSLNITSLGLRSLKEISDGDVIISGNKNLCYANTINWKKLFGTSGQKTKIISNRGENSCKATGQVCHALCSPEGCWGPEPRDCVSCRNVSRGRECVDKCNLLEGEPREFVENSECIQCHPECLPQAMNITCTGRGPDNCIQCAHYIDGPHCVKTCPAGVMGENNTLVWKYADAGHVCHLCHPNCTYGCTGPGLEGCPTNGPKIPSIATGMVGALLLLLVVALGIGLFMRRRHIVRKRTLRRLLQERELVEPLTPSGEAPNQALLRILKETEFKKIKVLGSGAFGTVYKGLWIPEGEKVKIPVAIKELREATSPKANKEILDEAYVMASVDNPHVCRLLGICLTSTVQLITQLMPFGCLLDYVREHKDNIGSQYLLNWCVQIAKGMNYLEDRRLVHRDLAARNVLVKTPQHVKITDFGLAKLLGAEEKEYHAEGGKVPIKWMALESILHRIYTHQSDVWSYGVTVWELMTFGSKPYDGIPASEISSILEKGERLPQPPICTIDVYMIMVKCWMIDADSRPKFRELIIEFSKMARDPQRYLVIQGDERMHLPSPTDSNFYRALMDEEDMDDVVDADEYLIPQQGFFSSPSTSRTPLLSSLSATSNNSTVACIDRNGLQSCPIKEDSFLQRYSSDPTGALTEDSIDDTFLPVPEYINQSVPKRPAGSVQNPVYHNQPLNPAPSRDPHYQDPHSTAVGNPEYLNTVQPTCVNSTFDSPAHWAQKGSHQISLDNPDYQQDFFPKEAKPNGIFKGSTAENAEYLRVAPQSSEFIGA

Question: How did the IC50 turn out when `CCN1CCC(Nc2ccc3c(c2)/C(=C(\c2ccc(OC)cc2)c2nc4cc(OC)ccc4[nH]2)C(=O)N3)CC1` was run?
Answer: 500 to 5000 nM

Question: For `COCCN1CCC(Nc2ccc3c(c2)/C(=C(\c2ccc(C(F)(F)F)cc2)c2ncc[nH]2)C(=O)N3)CC1`, which IC50 is on record?
Answer: > 5000 nM

Question: For `CCN1CCC(Nc2ccc3c(c2)/C(=C(\c2cccc(OC)c2)c2nc4ccccc4[nH]2)C(=O)N3)CC1`, which IC50 is on record?
Answer: 50 to 500 nM

Question: How did the IC50 turn out when `CCN1CCC(Nc2ccc3c(c2)/C(=C(\c2ccc(C)c(F)c2)c2nc(C)c[nH]2)C(=O)N3)CC1` was run?
Answer: < 50 nM

Question: `O=C1Nc2ccc(NC3CCNCC3)cc2/C1=C(\c1cccc(F)c1)c1ncc[nH]1` was tested. Which IC50 did it give?
Answer: > 5000 nM

Question: For `COCCN1CCC(Nc2ccc3c(c2)/C(=C(\c2cccc(F)c2)c2ncc[nH]2)C(=O)N3)CC1`, which IC50 is on record?
Answer: 50 to 500 nM

Question: With `CCN1CCC(Nc2ccc3c(c2)/C(=C(/c2nc(C)c[nH]2)c2ccc(C(F)(F)F)cc2F)C(=O)N3)CC1` as the compound, how does the IC50 read?
Answer: 50 to 500 nM

Question: With `CCN1CCC(Nc2ccc3c(c2)/C(=C(\c2cc(F)cc(F)c2)c2ncc[nH]2)C(=O)N3)CC1` as the compound, how does the IC50 read?
Answer: 50 to 500 nM

Question: `COCCN1CCC(Nc2ccc3c(c2)/C(=C(\c2ccc(OC)cc2)c2ncc[nH]2)C(=O)N3)CC1` was tested. Which IC50 did it give?
Answer: > 5000 nM

Question: With `COCCN1CCC(Nc2ccc3c(c2)/C(=C(\c2cc(F)cc(F)c2)c2nc(C)c[nH]2)C(=O)N3)CC1` as the compound, how does the IC50 read?
Answer: 50 to 500 nM

Question: For `CCN1CCC(Nc2ccc3c(c2)/C(=C(\c2ccc(F)c(Cl)c2)c2ncc[nH]2)C(=O)N3)CC1`, which IC50 is on record?
Answer: 500 to 5000 nM

Question: For `COCCN1CCC(Nc2ccc3c(c2)/C(=C(\c2cccc(F)c2)c2ncn[nH]2)C(=O)N3)CC1`, which IC50 is on record?
Answer: > 5000 nM

Question: Which IC50 does the source give for `CCN(CC)CCN1CCC(Nc2ccc3c(c2)/C(=C(\c2cccc(F)c2)c2ncc[nH]2)C(=O)N3)CC1` here?
Answer: > 5000 nM

Question: For `COCCN1CCC(Oc2ccc3c(c2)/C(=C(\c2cccc(Cl)c2)c2nc4ccccc4[nH]2)C(=O)N3)CC1`, which IC50 is on record?
Answer: 50 to 500 nM

Question: Which IC50 does the source give for `COc1ccc2[nH]c(/C(=C3\C(=O)Nc4ccc(NC5CCN(Cc6ccccc6)C5)cc43)c3ccccc3)nc2c1` (stereo not given) here?
Answer: 500 to 5000 nM

Question: How did the IC50 turn out when `CCN1CCC(Nc2ccc3c(c2)/C(=C(\c2ccc(Cl)cc2)c2nc4ccccc4[nH]2)C(=O)N3)CC1` was run?
Answer: 50 to 500 nM

Question: `CCN1CCC(Nc2ccc3c(c2)/C(=C(\c2cc(F)cc(F)c2)c2nc(C)c[nH]2)C(=O)N3)CC1` was tested. Which IC50 did it give?
Answer: 50 to 500 nM

Question: `CCN1CCC(Nc2ccc3c(c2)/C(=C(\c2ccc(C(F)(F)F)nc2)c2ncc[nH]2)C(=O)N3)CC1` was tested. Which IC50 did it give?
Answer: > 5000 nM

Question: `CCN1CCC(Nc2ccc3c(c2)/C(=C(\c2ccc([N+](=O)[O-])cc2)c2nc4ccccc4[nH]2)C(=O)N3)CC1` was tested. Which IC50 did it give?
Answer: 500 to 5000 nM

Question: With `CCN1CCC(Oc2ccc3c(c2)/C(=C(\c2cc(F)cc(F)c2)c2nc4ccccc4[nH]2)C(=O)N3)CC1` as the compound, how does the IC50 read?
Answer: 500 to 5000 nM

Question: For `CCN1CCC(Nc2ccc3c(c2)/C(=C(\c2cccc(F)c2)c2nc(-c4ccccc4)c[nH]2)C(=O)N3)CC1`, which IC50 is on record?
Answer: 50 to 500 nM

Question: Which IC50 does the source give for `CCN1CCC(Nc2ccc3c(c2)/C(=C(\c2ccc(C)c(F)c2)c2nc4ccccc4[nH]2)C(=O)N3)CC1` here?
Answer: < 50 nM

Question: Which IC50 does the source give for `CCCc1ccc(/C(=C2/C(=O)Nc3ccc(NC4CCN(CC)CC4)cc32)c2ncc[nH]2)cc1` here?
Answer: 50 to 500 nM

Question: For `CCN1CCC(Nc2ccc3c(c2)/C(=C(\c2ccc(F)c(F)c2)c2nc(C)c[nH]2)C(=O)N3)CC1`, which IC50 is on record?
Answer: < 50 nM

Question: For `CCN1CCC(Nc2ccc3c(c2)/C(=C(\c2cccc(C(F)(F)F)c2)c2nc(C)c[nH]2)C(=O)N3)CC1`, which IC50 is on record?
Answer: 500 to 5000 nM

Question: For `CCN1CCC(Nc2ccc3c(c2)/C(=C(\c2ccc(C)cc2)c2nc(C)c[nH]2)C(=O)N3)CC1`, which IC50 is on record?
Answer: 50 to 500 nM

Question: How did the IC50 turn out when `COCCN1CCC(Nc2ccc3c(c2)/C(=C(\c2ccc(C)cc2)c2nc(C)c[nH]2)C(=O)N3)CC1` was run?
Answer: 50 to 500 nM

Question: Which IC50 does the source give for `CS(=O)(=O)N1CCC(Nc2ccc3c(c2)/C(=C(\c2cccc(F)c2)c2ncc[nH]2)C(=O)N3)CC1` here?
Answer: > 5000 nM

Question: With `Cc1ccc(/C(=C2/C(=O)Nc3ccc(NC4CCN(C)CC4)cc32)c2ncc[nH]2)cc1` as the compound, how does the IC50 read?
Answer: 50 to 500 nM

Question: How did the IC50 turn out when `COCCN1CCC(Nc2ccc3c(c2)/C(=C(\c2cccc(Cl)c2)c2ncc[nH]2)C(=O)N3)CC1` was run?
Answer: 500 to 5000 nM

Question: How did the IC50 turn out when `CCN1CCC(Nc2ccc3c(c2)/C(=C(\c2cccc(C(=N)N)c2)c2nc4ccccc4[nH]2)C(=O)N3)CC1` was run?
Answer: 500 to 5000 nM

Question: `COCCN1CCC(Nc2ccc3c(c2)/C(=C(\c2cccc(Cl)c2)c2nc4ccccc4[nH]2)C(=O)N3)CC1` was tested. Which IC50 did it give?
Answer: 500 to 5000 nM

Question: For `CCN1CCC(Nc2ccc3c(c2)/C(=C(\c2cccc([N+](=O)[O-])c2)c2nc4ccccc4[nH]2)C(=O)N3)CC1`, which IC50 is on record?
Answer: 500 to 5000 nM

Question: Which IC50 does the source give for `COCCN1CCC(Nc2ccc3c(c2)/C(=C(\c2cccc(F)c2)c2nc4ccccc4[nH]2)C(=O)N3)CC1` here?
Answer: 50 to 500 nM

Question: For `O=C1Nc2ccc(OC3CCN(Cc4ccccc4)CC3)cc2/C1=C(\c1ccccc1)c1nc2ccccc2[nH]1`, which IC50 is on record?
Answer: 500 to 5000 nM

Question: `CCN1CCC(Oc2ccc3c(c2)/C(=C(\c2cccc(Cl)c2)c2ncc[nH]2)C(=O)N3)CC1` was tested. Which IC50 did it give?
Answer: 500 to 5000 nM

Question: How did the IC50 turn out when `CCN1CCC(Nc2ccc3c(c2)/C(=C(/c2nc(C)c[nH]2)c2cccc(F)c2F)C(=O)N3)CC1` was run?
Answer: 50 to 500 nM

Question: `CCN1CCC(Nc2ccc3c(c2)/C(=C(\c2ccc(F)cc2)c2nc4ccccc4[nH]2)C(=O)N3)CC1` was tested. Which IC50 did it give?
Answer: 500 to 5000 nM

Question: For `COCCN1CCC(Nc2ccc3c(c2)/C(=C(\c2cccc(F)c2)c2nc(C)c[nH]2)C(=O)N3)CC1`, which IC50 is on record?
Answer: 50 to 500 nM

Question: Which IC50 does the source give for `COCCN1CCC(Nc2ccc3c(c2)/C(=C(\c2ccc(C)c(F)c2)c2ncc[nH]2)C(=O)N3)CC1` here?
Answer: 50 to 500 nM
